Results as given in US8227428B2, “Anti-infammatory macrolide” (Glaxo Group Limited, priority 2009, dated 2012).

What was measured:
[1] = Stability in buffer solutions pH 2 to pH 8 at 25° C.; assay type: physicochemical
Protocol: (§1) Stability in buffer solutions pH 2 to pH 8 at 25° C., and in bio-relevant media (SGF pH 1.6, Fasted SIF pH 6.5 and Fed SIF pH 5.0) at 37° C., during 24 hours is monitored. The samples are analysed by LC/MS.
Buffer Solutions and Physiologically Relevant Media Used in Stability Assay:
LC Conditions: Instrument HP1100
Column: Waters XBridge C18, 2.1×50 mm, 3.5 μm
Guard column: Waters XBridge C18, 2.1×10 mm, 3.5 μm
• A) 0.1% HCOOH/H2O • B) 0.1% HCOOH/CH3CN Gradient Timetable: […]
(§2) Flow: 0.3 mL/min Column temp.: 25° C. Sample temp.: 25° C. (for stability assay in buffer solutions) • 37° C. (for stability assay in bio-relevant media) Injector volume: 3 μL (without injection program) MS Conditions: Instrument HP MS API-ES, positive ion mode Mass Range: 150-1500 Fragmentor: 100 Gain: 1.0 Treshold: 150 Step size: 0.20 Gas Temperature: 350° C. Drying Gas Flow: 13 L/min Nebulizer Pressure: 35 psig Capillary Voltage Positive 4000 V • Negative 4000 V Sample Preparation: a) For Stability Assay in Buffer Solutions
Compounds are dissolved in CH3CN to produce a 1 mg/mL stock solution. The stock solution is diluted to a concentration of 0.2 mg/mL (1 mL solution in 4 mL buffer) with appropriate buffer to produce a working solution.
Each solution at each pH is then dispatched into vials that are sealed and stored at room temperature in order to be analyzed at the proper time point. Before analysis, pH values of prepared sample solutions are checked and adjusted if neccessary.

[2] = Stability in bio-relevant media (SGF, Fasted SIF, Fed SIF) at 37° C.; assay type: physicochemical
Protocol: as §1
SGF (Simulated Gastric Fluid) pH 1.6
Fasted SIF (Simulated Intestinal Fluid) pH 6.5
Fed SIF (Simulated Intestinal Fluid) pH 5.0
as §2
b) For Stability Assay in Bio-Relevat Media
b1) For SGF Media pH 1.6 Testing:
Compounds are dissolved in SGF media pH 1.6 to give 0.2 mg/mL solution in case of compounds 1 and 2, and to give 0.1 mg/mL solution in case of compound 3. Solutions are then stored in a water bath at 37° C. and removed at the proper time point for LC/MS analysis. Before analysis, pH values of prepared sample solutions are checked and adjusted if necessary.
b2) For Fasted SIF Media pH 6.5 Testing:
(§3) Compounds are dissolved in Fasted SIF media pH 6.5 to give 2 mg/mL solution. Solutions are then dispatched into vials that are stored in a water bath at 37° C. and removed at the proper time point and diluted 10 times with CH3CN for LC/MS analysis. Before analysis, pH values of prepared sample solutions are checked and adjusted if necessary.
b3) For Fed SIF Media pH 5.0 Testing:
as §3, with “Fed” for “Fasted”, “5.0” for “6.5”, “40” for “10”

SMILES: CC[C@H]1OC(=O)[C@H](C)[C@@H](O[C@H]2C[C@@](C)(OC)[C@@H](OC(=O)CCN(CC)CC)[C@H](C)O2)[C@H](C)[C@@H](O[C@@H]2O[C@H](C)C[C@H](NC)[C@H]2O)[C@](C)(OC)C[C@@H](C)C(=O)N[C@H](C)[C@@H](O)[C@]1(C)O [Example 2, 3′-N-Demethyl-4″-O-(3-diethylaminopropionoyl)-6-O-methyl-9a-aza-9a-homoerythromycin A]
- Percentage (Area %) of the compound observed in buffers ([1]; pH 6, 25° C., 20 h): 98.2 Area %
- Percentage (Area %) of the compound observed in buffers ([1]; pH 6, 25° C., 22 h): 98.2 Area %
- Percentage (Area %) of the compound observed in buffers ([1]; pH 6, 25° C., 24 h): 98.1 Area %
- Percentage (Area %) of the compound observed in buffers ([1]; pH 6, 25° C., Initial): 100 Area %
- Percentage (Area %) of the compound observed in buffers ([1]; pH 7, 25° C., 2 h): 97.8 Area %
- Percentage (Area %) of the compound observed in buffers ([1]; pH 7, 25° C., 4 h): 93.4 Area %
- Percentage (Area %) of the compound observed in buffers ([1]; pH 7, 25° C., 6 h): 89.8 Area %
- Percentage (Area %) of the compound observed in buffers ([1]; pH 7, 25° C., 8 h): 89.3 Area %
- Percentage (Area %) of the compound observed in buffers ([1]; pH 7, 25° C., 12 h): 85.1 Area %
- Percentage (Area %) of the compound observed in buffers ([1]; pH 7, 25° C., 14 h): 84.3 Area %
- Percentage (Area %) of the compound observed in buffers ([1]; pH 7, 25° C., 18 h): 84.0 Area %
- Percentage (Area %) of the compound observed in buffers ([1]; pH 7, 25° C., 20 h): 81.3 Area %
- Percentage (Area %) of the compound observed in buffers ([1]; pH 7, 25° C., 22 h): 79.9 Area %
- Percentage (Area %) of the compound observed in buffers ([1]; pH 7, 25° C., 24 h): 78.4 Area %
- Percentage (Area %) of the compound observed in buffers ([1]; pH 7, 25° C., Initial): 100 Area %
- Percentage (Area %) of the compound observed in buffers ([1]; pH 8, 25° C., 2 h): 92.0 Area %
- Percentage (Area %) of the compound observed in buffers ([1]; pH 8, 25° C., 4 h): 81.7 Area %
- Percentage (Area %) of the compound observed in buffers ([1]; pH 8, 25° C., 6 h): 77.7 Area %
- Percentage (Area %) of the compound observed in buffers ([1]; pH 8, 25° C., 8 h): 71.7 Area %
- Percentage (Area %) of the compound observed in buffers ([1]; pH 8, 25° C., 12 h): 63.4 Area %
- Percentage (Area %) of the compound observed in buffers ([1]; pH 8, 25° C., 14 h): 60.2 Area %
- Percentage (Area %) of the compound observed in buffers ([1]; pH 8, 25° C., 18 h): 54.2 Area %
- Percentage (Area %) of the compound observed in buffers ([1]; pH 8, 25° C., 20 h): 51.1 Area %
- Percentage (Area %) of the compound observed in buffers ([1]; pH 8, 25° C., 22 h): 47.1 Area %
- Percentage (Area %) of the compound observed in buffers ([1]; pH 8, 25° C., 24 h): 44.6 Area %
- Percentage (Area %) of the compound observed in buffers ([1]; pH 8, 25° C., Initial): 100 Area %
- stability in bio-relevant media SGF pH 1.6 and Fasted SIF pH 6.5 ([2]; 37° C., during 24 hours): Example 2 showed instability in bio-relevant media SGF pH 1.6 and in Fasted SIF pH 6.5.
- Percentage (Area %) of the compound observed in Bio-relevant media ([2]; Fasted SIF pH 6.5, 37° C., 1 h): 99.6 Area %
- Percentage (Area %) of the compound observed in Bio-relevant media ([2]; Fasted SIF pH 6.5, 37° C., 2 h): 98.0 Area %
- Percentage (Area %) of the compound observed in Bio-relevant media ([2]; Fasted SIF pH 6.5, 37° C., 3 h): 93.0 Area %
- Percentage (Area %) of the compound observed in Bio-relevant media ([2]; Fasted SIF pH 6.5, 37° C., 4 h): 89.7 Area %
- Percentage (Area %) of the compound observed in Bio-relevant media ([2]; Fasted SIF pH 6.5, 37° C., 5 h): 86.7 Area %
- Percentage (Area %) of the compound observed in Bio-relevant media ([2]; Fasted SIF pH 6.5, 37° C., Initial): 100 Area %
- Percentage (Area %) of the compound observed in Bio-relevant media ([2]; Fed SIF pH 5.0, 37° C., 1 h): 99.7 Area %
- Percentage (Area %) of the compound observed in Bio-relevant media ([2]; Fed SIF pH 5.0, 37° C., 2 h): 99.6 Area %
- Percentage (Area %) of the compound observed in Bio-relevant media ([2]; Fed SIF pH 5.0, 37° C., 3 h): 99.4 Area %
- Percentage (Area %) of the compound observed in Bio-relevant media ([2]; Fed SIF pH 5.0, 37° C., 4 h): 98.7 Area %
- Percentage (Area %) of the compound observed in Bio-relevant media ([2]; Fed SIF pH 5.0, 37° C., 5 h): 98.6 Area %
- Percentage (Area %) of the compound observed in Bio-relevant media ([2]; Fed SIF pH 5.0, 37° C., 24 h): 97.4 Area %
- Percentage (Area %) of the compound observed in Bio-relevant media ([2]; Fed SIF pH 5.0, 37° C., Initial): 100 Area %
- Percentage (Area %) of the compound observed in Bio-relevant media ([2]; SGF pH 1.6, 37° C., 15): 83.9 Area %
- Percentage (Area %) of the compound observed in Bio-relevant media ([2]; SGF pH 1.6, 37° C., 1 h): 99.3 Area %
- Percentage (Area %) of the compound observed in Bio-relevant media ([2]; SGF pH 1.6, 37° C., 2 h): 99.3 Area %
- Percentage (Area %) of the compound observed in Bio-relevant media ([2]; SGF pH 1.6, 37° C., 3 h): 96.6 Area %
- Percentage (Area %) of the compound observed in Bio-relevant media ([2]; SGF pH 1.6, 37° C., 4 h): 92.9 Area %
- Percentage (Area %) of the compound observed in Bio-relevant media ([2]; SGF pH 1.6, 37° C., 5 h): 92.3 Area %
- Percentage (Area %) of the compound observed in Bio-relevant media ([2]; SGF pH 1.6, 37° C., 6 h): 91.1 Area %
- Percentage (Area %) of the compound observed in Bio-relevant media ([2]; SGF pH 1.6, 37° C., 8 h): 90.1 Area %
- Percentage (Area %) of the compound observed in Bio-relevant media ([2]; SGF pH 1.6, 37° C., 10 h): 87.2 Area %
- Percentage (Area %) of the compound observed in Bio-relevant media ([2]; SGF pH 1.6, 37° C., 12 h): 85.4 Area %
- Percentage (Area %) of the compound observed in Bio-relevant media ([2]; SGF pH 1.6, 37° C., 18 h): 82.4 Area %
- Percentage (Area %) of the compound observed in Bio-relevant media ([2]; SGF pH 1.6, 37° C., 21 h): 81.0 Area %
- Percentage (Area %) of the compound observed in Bio-relevant media ([2]; SGF pH 1.6, 37° C., Initial): 100 Area %
